According to publication PMC4991450, “Protein arginine methyltransferase 1 may be involved in pregnane x receptor-activated overexpression of multidrug resistance 1 gene during acquired multidrug resistant” (Oncotarget, 2016):

What follows are compounds tested against Protein arginine methyltransferase 1 (PRMT1) (Homo sapiens, UniProt Q99873) (assay: Transzyme HMT PRMT1 fluorescence polarization enzyme assay, rescreened at […]).
Chain of Protein arginine methyltransferase 1 (PRMT1) (Q99873 whole entry): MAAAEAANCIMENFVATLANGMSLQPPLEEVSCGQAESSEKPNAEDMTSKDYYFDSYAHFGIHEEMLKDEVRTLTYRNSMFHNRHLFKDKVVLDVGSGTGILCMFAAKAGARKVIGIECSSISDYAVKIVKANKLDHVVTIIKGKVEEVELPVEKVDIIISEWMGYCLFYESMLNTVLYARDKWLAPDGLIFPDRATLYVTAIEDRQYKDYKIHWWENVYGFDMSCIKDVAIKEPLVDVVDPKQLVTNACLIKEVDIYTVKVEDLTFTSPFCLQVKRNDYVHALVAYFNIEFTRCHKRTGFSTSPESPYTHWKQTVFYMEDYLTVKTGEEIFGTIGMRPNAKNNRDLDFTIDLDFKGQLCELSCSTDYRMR
Assay type: biochemical
In the case of `O=C(/C=C/c1ccc(O)c(O)c1/C=C/c1ccc(O)c(O)c1)O[C@H](Cc1ccc(O)c(O)c1)C(=O)O` [salvianolic acid A], the “Transzyme HMT PRMT1 fluorescence polarization enzyme assay, rescreened at 0-100” value is reported as “Five compounds were found to inhibit PRMT1 activity, including rutin, isoquercitrin, salvianolic acid A (SAA), naproxen, and felodipline”.
With `O=c1c(O[C@@H]2O[C@H](CO)[C@@H](O)[C@H](O)[C@H]2O)c(-c2ccc(O)c(O)c2)oc2cc(O)cc(O)c12` [isoquercitrin] the “Transzyme HMT PRMT1 fluorescence polarization enzyme assay, rescreened at 0-100” value was “Five compounds were found to inhibit PRMT1 activity, including rutin, isoquercitrin, salvianolic acid A (SAA), naproxen, and felodipline”.
In the case of `C[C@@H]1O[C@@H](OC[C@H]2O[C@@H](Oc3c(-c4ccc(O)c(O)c4)oc4cc(O)cc(O)c4c3=O)[C@H](O)[C@@H](O)[C@@H]2O)[C@H](O)[C@H](O)[C@H]1O` [rutin], the “Transzyme HMT PRMT1 fluorescence polarization enzyme assay, rescreened at 0-100” value is reported as “Five compounds were found to inhibit PRMT1 activity, including rutin, isoquercitrin, salvianolic acid A (SAA), naproxen, and felodipline”.
With `COc1ccc2cc([C@H](C)C(=O)O)ccc2c1` [naproxen] the “Transzyme HMT PRMT1 fluorescence polarization enzyme assay, rescreened at 0-100” value was “Five compounds were found to inhibit PRMT1 activity, including rutin, isoquercitrin, salvianolic acid A (SAA), naproxen, and felodipline”.
With `CCOC(=O)C1=C(C)NC(C)=C(C(=O)OC)C1c1cccc(Cl)c1Cl` (centres unmarked) [felodipline] the “Transzyme HMT PRMT1 fluorescence polarization enzyme assay, rescreened at 0-100” value was “Five compounds were found to inhibit PRMT1 activity, including rutin, isoquercitrin, salvianolic acid A (SAA), naproxen, and felodipline”.
